From ChEMBL document CHEMBL3860091, “Synthesis and activity of newly designed aroxyalkyl or aroxyethoxyethyl derivatives of piperazine on the cardiovascular and the central nervous systems” (Bioorg Med Chem Lett, 2016)

Assays:
[1] = Antidepressant-like activity in mouse assessed as immobility time at 5 mg/kg, ip by tail suspension test (reference value: 154.2 +/- 10.2 sec); type: functional, organism-based
[2] = Antidepressant-like activity in mouse assessed as immobility time at 10 mg/kg, ip by tail suspension test (reference value: 154.2 +/- 10.2 sec); type: functional, organism-based
Rattus norvegicus = species on record: Rattus norvegicus; test: Selectivity ratio of Ki for rat brain cerebral cortex alpha2 adrenergic receptor to Ki for rat brain cerebral cortex alpha1 adrenergic receptor
[3] = target: T1, Adrenergic receptor alpha-1 (Rattus norvegicus, UniProt P15823+P23944+P43140); test: Antagonist activity at alpha1 adrenergic receptor in rat aorta assessed as inhibition of phenylephrine-induced aortic contraction
T1 sequence (P15823 whole entry): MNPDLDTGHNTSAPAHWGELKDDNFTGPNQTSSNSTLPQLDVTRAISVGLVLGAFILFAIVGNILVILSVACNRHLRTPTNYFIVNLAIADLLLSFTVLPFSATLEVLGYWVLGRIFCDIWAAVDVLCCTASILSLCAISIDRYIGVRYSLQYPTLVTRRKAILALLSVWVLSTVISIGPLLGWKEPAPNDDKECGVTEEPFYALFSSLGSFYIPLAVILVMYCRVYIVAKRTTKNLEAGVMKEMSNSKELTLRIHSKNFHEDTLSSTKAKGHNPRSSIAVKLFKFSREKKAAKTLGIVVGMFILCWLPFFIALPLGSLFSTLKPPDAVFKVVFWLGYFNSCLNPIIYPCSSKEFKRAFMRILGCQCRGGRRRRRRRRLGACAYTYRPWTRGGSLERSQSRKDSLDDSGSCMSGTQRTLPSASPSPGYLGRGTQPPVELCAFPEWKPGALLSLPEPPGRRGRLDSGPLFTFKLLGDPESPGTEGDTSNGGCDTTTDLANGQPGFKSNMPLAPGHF
T1 sequence (P23944 whole entry): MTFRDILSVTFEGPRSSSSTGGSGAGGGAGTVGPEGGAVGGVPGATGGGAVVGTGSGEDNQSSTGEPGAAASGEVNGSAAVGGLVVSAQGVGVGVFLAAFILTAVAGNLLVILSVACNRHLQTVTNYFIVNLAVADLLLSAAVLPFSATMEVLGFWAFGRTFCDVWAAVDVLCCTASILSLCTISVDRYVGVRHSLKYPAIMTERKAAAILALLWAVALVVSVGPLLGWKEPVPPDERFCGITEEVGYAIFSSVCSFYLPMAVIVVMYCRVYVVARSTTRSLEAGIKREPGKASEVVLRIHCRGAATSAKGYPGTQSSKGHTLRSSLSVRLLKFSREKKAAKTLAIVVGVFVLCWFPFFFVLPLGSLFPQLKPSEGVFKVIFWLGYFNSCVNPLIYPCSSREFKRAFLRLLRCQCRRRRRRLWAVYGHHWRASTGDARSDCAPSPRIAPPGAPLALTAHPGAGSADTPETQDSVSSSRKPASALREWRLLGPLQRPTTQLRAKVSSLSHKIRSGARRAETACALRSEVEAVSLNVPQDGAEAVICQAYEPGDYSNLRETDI
T1 sequence (P43140 whole entry): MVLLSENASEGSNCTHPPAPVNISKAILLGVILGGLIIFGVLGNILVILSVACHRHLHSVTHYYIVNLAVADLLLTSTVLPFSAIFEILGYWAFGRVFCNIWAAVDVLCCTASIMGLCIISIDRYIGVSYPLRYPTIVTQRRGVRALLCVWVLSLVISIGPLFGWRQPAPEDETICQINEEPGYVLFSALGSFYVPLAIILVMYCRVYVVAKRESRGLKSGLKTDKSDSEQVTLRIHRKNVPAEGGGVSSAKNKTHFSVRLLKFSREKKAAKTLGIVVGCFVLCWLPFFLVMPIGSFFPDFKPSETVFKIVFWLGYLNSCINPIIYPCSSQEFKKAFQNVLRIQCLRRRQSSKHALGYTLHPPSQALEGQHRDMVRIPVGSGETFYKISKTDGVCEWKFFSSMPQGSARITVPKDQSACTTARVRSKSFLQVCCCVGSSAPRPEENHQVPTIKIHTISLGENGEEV

[4] = target: T1, Adrenergic receptor alpha-1; test: Displacement of [3H]prazosin from alpha1 adrenergic receptor in rat brain cerebral cortex; type: tissue-based

Compound | TIME [1] | TIME [2] | Ratio Ki (Rattus norvegicus) | pA2 [3] | Ki [4]
CN(C)CCCN1c2ccccc2CCc2ccccc21 | 0.0363 h | 0.0283 h | – | – | –
COc1ccccc1N1CCN(CCCOc2cccc(C)c2C)CC1.Cl | – | – | 13.3 | 8.534 | 2.8 nM
COc1ccccc1N1CCN(CCCOc2c(C)cccc2C)CC1.Cl | – | – | 142 | 8.807 | 2.4 nM
